Measurements taken from the supplement of paper PMC8617591.

What was measured:
[1] = system: Mycobacterium tuberculosis Erdman (autoluminescent); assay: total FIC50 (Loewe) at 50% inhibition, three-drug combination (log2); higher = more antagonistic
Description: (§1)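 DiaMOND equipotent three-drug combination dose responses (10 doses, 1.5- or 2-fold spacing, centred on IC90) against autoluminescent M. tuberculosis Erdman in 8 in vitro models. Read-out is OD600, or luminescence for the intracellular and dormancy models, normalised to untreated wells. Hill-fit Einf, AUC25 and GRinf are potency metrics; FIC50 and FIC90 are total Loewe fractional inhibitory concentrations as log2 (negative = synergy).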

[2] = system: Mycobacterium tuberculosis Erdman (autoluminescent); assay: total FIC90 (Loewe) at 90% inhibition, three-drug combination (log2); higher = more antagonistic
Description: as §1

[3] = system: Mycobacterium tuberculosis Erdman (autoluminescent); assay: Einf, fitted maximum growth inhibition of three-drug combination (fraction); higher = stronger maximal inhibition
Description: as §1

[4] = system: Mycobacterium tuberculosis Erdman (autoluminescent); assay: AUC25, normalised area under dose response up to IC25 (three-drug combination) (fraction (0-1)); higher = more potent at low dose
Description: as §1

[5] = system: Mycobacterium tuberculosis Erdman (autoluminescent); assay: GRinf, maximum normalised growth rate inhibition (three-drug combination) (unitless (-1 to 1)); higher = less effect (negative = killing)
Description: as §1

NNC(=O)c1ccncc1 [isoniazid] + COc1c(N2C[C@@H]3CCCN[C@@H]3C2)c(F)cc2c(=O)c(C(=O)O)cn(C3CC3)c12 [moxifloxacin] + NC(=O)c1cnccn1 [pyrazinamide]
Settings	AUC25, [4]	Einf, [3]	GRinf, [5]	total FIC50, [1]	total FIC90, [2]
in vitro model: acidic pH 5.7, time point: constant (~7 days, model-specific)	0.0943	0.811	-0.673	-1.74	–
in vitro model: acidic pH 5.7, time point: terminal (~4-5 doublings, model-specific)	0.0851	0.971	-0.382	-2.52	-1.33
in vitro model: intracellular J774, time point: constant = terminal	–	0.997	-0.252	–	0.681

Settings	AUC25, [4]	Einf, [3]	GRinf, [5]	total FIC50, [1]	total FIC90, [2]
in vitro model: butyrate, time point: constant (~7 days, model-specific)	0.0913	0.951	-0.232	-1.78	-0.791
in vitro model: butyrate, time point: terminal (~4-5 doublings, model-specific)	0.0549	0.975	-0.195	-1.66	-1.72
in vitro model: cholesterol 0.05 mM, time point: constant (~7 days, model-specific)	0.0921	0.697	-0.188	–	–
in vitro model: cholesterol 0.05 mM, time point: terminal (~4-5 doublings, model-specific)	0.0805	0.887	-0.177	-0.327	–
in vitro model: cholesterol-high 0.2 mM, time point: constant (~7 days, model-specific)	0.0786	0.911	-0.235	0.416	–
in vitro model: cholesterol-high 0.2 mM, time point: terminal (~4-5 doublings, model-specific)	0.0668	0.981	-0.527	0.819	0.533
in vitro model: dormancy (butyrate + nitrate, low O2), time point: constant (~7 days, model-specific)	0.0724	0.877	0.245	-2.06	-2.38
in vitro model: dormancy (butyrate + nitrate, low O2), time point: terminal (~4-5 doublings, model-specific)	0.0689	0.984	-0.161	-1.92	-1.58
in vitro model: standard 7H9 glycerol, time point: constant = terminal	0.0639	0.983	-0.168	–	–
in vitro model: valerate, time point: constant (~7 days, model-specific)	0.117	0.877	0.0249	-1.97	–
in vitro model: valerate, time point: terminal (~4-5 doublings, model-specific)	0.0825	0.931	0.0159	-1.91	-1.83

NNC(=O)c1ccncc1 [isoniazid] + COc1c(N2C[C@@H]3CCCN[C@@H]3C2)c(F)cc2c(=O)c(C(=O)O)cn(C3CC3)c12 [moxifloxacin] + O=[N+]([O-])c1cn2c(n1)OC[C@@H](OCc1ccc(OC(F)(F)F)cc1)C2 [pretomanid]
Settings	AUC25, [4]	Einf, [3]	GRinf, [5]	total FIC50, [1]	total FIC90, [2]
in vitro model: acidic pH 5.7, time point: constant (~7 days, model-specific)	0.105	0.752	-0.684	4.5	–
in vitro model: acidic pH 5.7, time point: terminal (~4-5 doublings, model-specific)	0.0907	0.959	-0.532	4.46	4.49
in vitro model: intracellular J774, time point: constant = terminal	–	0.994	-0.481	–	0.579

Settings	AUC25, [4]	Einf, [3]	GRinf, [5]	total FIC50, [1]	total FIC90, [2]
in vitro model: butyrate, time point: constant (~7 days, model-specific)	0.0536	0.929	-0.0807	2.83	2.02
in vitro model: butyrate, time point: terminal (~4-5 doublings, model-specific)	0.0441	0.974	-0.0869	2.53	2.38
in vitro model: cholesterol 0.05 mM, time point: constant (~7 days, model-specific)	0.105	0.746	-0.26	1.75	–
in vitro model: cholesterol 0.05 mM, time point: terminal (~4-5 doublings, model-specific)	0.0994	0.957	-0.35	8.24	1.68
in vitro model: cholesterol-high 0.2 mM, time point: constant (~7 days, model-specific)	0.0779	0.892	-0.144	0.366	–
in vitro model: cholesterol-high 0.2 mM, time point: terminal (~4-5 doublings, model-specific)	0.0578	0.977	-0.646	0.407	0.342
in vitro model: dormancy (butyrate + nitrate, low O2), time point: constant (~7 days, model-specific)	0.0796	0.873	0.251	2.42	2.29
in vitro model: dormancy (butyrate + nitrate, low O2), time point: terminal (~4-5 doublings, model-specific)	0.0682	0.986	-0.111	2.34	2.6
in vitro model: standard 7H9 glycerol, time point: constant = terminal	0.0818	0.979	-0.202	1.14	0.349
in vitro model: valerate, time point: constant (~7 days, model-specific)	0.107	0.898	-0.0314	2.35	–
in vitro model: valerate, time point: terminal (~4-5 doublings, model-specific)	0.071	0.948	-0.0412	2.43	2.4

NNC(=O)c1ccncc1 [isoniazid] + NC(=O)c1cnccn1 [pyrazinamide] + CO[C@H]1/C=C/O[C@@]2(C)Oc3c(C)c(O)c4c(O)c(c(/C=N/N5CCN(C6CCCC6)CC5)c(O)c4c3C2=O)NC(=O)/C(C)=C\C=C\[C@H](C)[C@H](O)[C@@H](C)[C@@H](O)[C@@H](C)[C@H](OC(C)=O)[C@@H]1C [rifapentine]
Settings	AUC25, [4]	Einf, [3]	GRinf, [5]	total FIC50, [1]	total FIC90, [2]
in vitro model: acidic pH 5.7, time point: constant (~7 days, model-specific)	0.096	0.925	-0.35	-3.55	–
in vitro model: acidic pH 5.7, time point: terminal (~4-5 doublings, model-specific)	0.0425	0.985	-0.234	-2.67	-3.81
in vitro model: intracellular J774, time point: constant = terminal	–	0.987	-0.309	–	0.243

Settings	AUC25, [4]	Einf, [3]	GRinf, [5]	total FIC50, [1]	total FIC90, [2]
in vitro model: butyrate, time point: constant (~7 days, model-specific)	0.0899	0.924	-0.00381	-1.95	0.6
in vitro model: butyrate, time point: terminal (~4-5 doublings, model-specific)	0.0698	0.969	0.0193	-1.85	-1.91
in vitro model: cholesterol 0.05 mM, time point: constant (~7 days, model-specific)	0.108	0.706	-0.183	–	–
in vitro model: cholesterol 0.05 mM, time point: terminal (~4-5 doublings, model-specific)	0.0828	0.893	-0.166	-0.19	–
in vitro model: cholesterol-high 0.2 mM, time point: constant (~7 days, model-specific)	0.0744	0.905	-0.222	0.738	–
in vitro model: cholesterol-high 0.2 mM, time point: terminal (~4-5 doublings, model-specific)	0.0802	0.997	-0.658	1.17	1.11
in vitro model: dormancy (butyrate + nitrate, low O2), time point: constant (~7 days, model-specific)	0.0611	0.883	0.232	-2.31	-2.4
in vitro model: dormancy (butyrate + nitrate, low O2), time point: terminal (~4-5 doublings, model-specific)	0.0351	0.973	-0.0606	-2.22	-2.43
in vitro model: standard 7H9 glycerol, time point: constant = terminal	0.066	0.915	0.0607	-5.95	–
in vitro model: valerate, time point: constant (~7 days, model-specific)	0.118	0.878	-0.183	-1.89	–
in vitro model: valerate, time point: terminal (~4-5 doublings, model-specific)	0.0446	0.949	-0.0194	-1.1	-0.889
